compound: T1, C[C@H]1CNCCN1c1nccc(-c2noc3c2CCC[C@@]32CCCc3sc(N)c(C#N)c32)n1 [BI-2493]; test: 1 - AUC of viability dose-response curve (sensitivity) (fraction); higher = more sensitive; conditions: 5 days
Experimental: (§1)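 PRISM pooled barcoded cancer cell line viability screen (Broad Institute) with BI-2493 at 8 doses in threefold dilutions from 0.00457 to 10 µmol/L, 5-day treatment; curves fitted per cell line. IC50 is undefined (placeholder) for resistant lines. AUC is capped at 1, and sensitivity is reported as 1 − AUC.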

Test System	1 - AUC of viability dose-response curve
MCC26_SKIN	0.0203
5637_URINARY_TRACT	0.225
SNU899_UPPER_AERODIGESTIVE_TRACT	0.157
NCIH524_LUNG	0.0829
ICC8_BILIARY_TRACT	0.185
U343_CENTRAL_NERVOUS_SYSTEM	0.0705
BDCM_HAEMATOPOIETIC_AND_LYMPHOID_TISSUE	0.0903
PK59_PANCREAS	0.336
UMUC11_URINARY_TRACT	0.101
M059K_CENTRAL_NERVOUS_SYSTEM	0.00953
BCPAP_THYROID	0.0703
JHUEM7_ENDOMETRIUM	0.101
NCIH1563_LUNG	0.00763
NCIH2452_PLEURA	0.00394
JR_SOFT_TISSUE	0.275
NCIH1694_LUNG	0.00415
PFSK1_CENTRAL_NERVOUS_SYSTEM	0.063
SUM159PT_BREAST	0.064
PEA1_OVARY	0.0757
DAOY_CENTRAL_NERVOUS_SYSTEM	0.0237
C80_LARGE_INTESTINE	0.3
WAOSEL_HAEMATOPOIETIC_AND_LYMPHOID_TISSUE	0.00836
SKGI_ENDOMETRIUM	0.142
SW626_LARGE_INTESTINE	0.124

Test System	1 - AUC of viability dose-response curve
A2780_OVARY	0.103
BT474_BREAST	0.0542
NZOV9_OVARY	0.155
OSC20_UPPER_AERODIGESTIVE_TRACT	0.165
MC116_HAEMATOPOIETIC_AND_LYMPHOID_TISSUE	0.0718
EFO27_OVARY	0.167
FTC133_THYROID	0.0578
TOV21G_OVARY	0.114
DOTC24510_CERVIX	0.0765
PANC0813_PANCREAS	0.27
JHH5_LIVER	0.297
AMO1_HAEMATOPOIETIC_AND_LYMPHOID_TISSUE	0.088
NCIH292_LUNG	0.0643
SNU1105_CENTRAL_NERVOUS_SYSTEM	0.157
AU565_BREAST	0.0935
SAOS2_BONE	0.0212
SMSCTR_SOFT_TISSUE	0.0341
SNU869_BILIARY_TRACT	0.279
RERFLCAD1_LUNG	0.18
MKN1_STOMACH	0.305
T47D_BREAST	0.0937
TM87_SOFT_TISSUE	0.26
DL_SOFT_TISSUE	0.192
TT2609C02_THYROID	0.00366

Test System	1 - AUC of viability dose-response curve
KE37_HAEMATOPOIETIC_AND_LYMPHOID_TISSUE	0.0832
KARPAS1718_HAEMATOPOIETIC_AND_LYMPHOID_TISSUE	0.0894
SW1116_LARGE_INTESTINE	0.214
PC14_LUNG	0.181
HCC56_LARGE_INTESTINE	0.242
LCLC103H_LUNG	0.0229
JL1_PLEURA	0.13
NCIH2030_LUNG	0.206
ECC2_BILIARY_TRACT	< 0
KS1_CENTRAL_NERVOUS_SYSTEM	0.0533
HSKTC_OVARY	0.166
TANOUE_HAEMATOPOIETIC_AND_LYMPHOID_TISSUE	0.0128
C32_SKIN	0.0594
OCIAML2_HAEMATOPOIETIC_AND_LYMPHOID_TISSUE	0.209
ISTMES1_PLEURA	0.0873
HLF_LIVER	0.0644
H157_UPPER_AERODIGESTIVE_TRACT	0.023
NIHOVCAR3_OVARY	0.103
GB2_BILIARY_TRACT	0.256
T3M10_LUNG	0.0884
DU145_PROSTATE	0.172
RO82W1_THYROID	0.123
OV56_OVARY	0.0641
TGBC1TKB_BILIARY_TRACT	0.0559

Test System	1 - AUC of viability dose-response curve
A253_SALIVARY_GLAND	0.197
CAL54_KIDNEY	0.00233
SKMEL28_SKIN	0.217
SNU407_LARGE_INTESTINE	0.3
JMSU1_URINARY_TRACT	0.00212
CAL12T_LUNG	0.201
CHLA15_AUTONOMIC_GANGLIA	0.187
SR786_HAEMATOPOIETIC_AND_LYMPHOID_TISSUE	0.0498
CMLT1_HAEMATOPOIETIC_AND_LYMPHOID_TISSUE	0.129
253J_URINARY_TRACT	0.0834
KALS1_CENTRAL_NERVOUS_SYSTEM	0.0195
SF126_CENTRAL_NERVOUS_SYSTEM	0.0902
CCLP1_BILIARY_TRACT	0.0617
BOKU_CERVIX	0.119
TALL1_HAEMATOPOIETIC_AND_LYMPHOID_TISSUE	0.0755
CJM_SKIN	0.11
SUDHL1_HAEMATOPOIETIC_AND_LYMPHOID_TISSUE	0.14
RH30_SOFT_TISSUE	0.0138
BT16_SOFT_TISSUE	0.189
SUPB15_HAEMATOPOIETIC_AND_LYMPHOID_TISSUE	0.149
KKU213_BILIARY_TRACT	0.12
COV362_OVARY	0.00606

compound: T1, BI-2493; test: not given; conditions: 5 days
Experimental: as §1

Test System	IC50 of cell viability [µM]
MCC26_SKIN	> 10
5637_URINARY_TRACT	5.2
SNU899_UPPER_AERODIGESTIVE_TRACT	4.32
NCIH524_LUNG	5.44
ICC8_BILIARY_TRACT	7.67
U343_CENTRAL_NERVOUS_SYSTEM	6.54
BDCM_HAEMATOPOIETIC_AND_LYMPHOID_TISSUE	> 10
PK59_PANCREAS	1.05
UMUC11_URINARY_TRACT	6.87
M059K_CENTRAL_NERVOUS_SYSTEM	9.49
BCPAP_THYROID	6.5
JHUEM7_ENDOMETRIUM	5.02
NCIH1563_LUNG	9.88
NCIH2452_PLEURA	> 10
JR_SOFT_TISSUE	1.44
NCIH1694_LUNG	> 10
PFSK1_CENTRAL_NERVOUS_SYSTEM	> 10
SUM159PT_BREAST	7.31
PEA1_OVARY	5.96
DAOY_CENTRAL_NERVOUS_SYSTEM	9.62
C80_LARGE_INTESTINE	0.477
WAOSEL_HAEMATOPOIETIC_AND_LYMPHOID_TISSUE	9.74
SKGI_ENDOMETRIUM	4.89
SW626_LARGE_INTESTINE	4.08

Test System	IC50 of cell viability [µM]
A2780_OVARY	5.15
BT474_BREAST	9.18
NZOV9_OVARY	8.42
OSC20_UPPER_AERODIGESTIVE_TRACT	9.09
MC116_HAEMATOPOIETIC_AND_LYMPHOID_TISSUE	5.28
EFO27_OVARY	9.28
FTC133_THYROID	> 10
TOV21G_OVARY	5.42
DOTC24510_CERVIX	6.38
PANC0813_PANCREAS	7.44
JHH5_LIVER	0.387
AMO1_HAEMATOPOIETIC_AND_LYMPHOID_TISSUE	5.6
NCIH292_LUNG	5.7
SNU1105_CENTRAL_NERVOUS_SYSTEM	4.12
AU565_BREAST	6.01
SAOS2_BONE	9.58
SMSCTR_SOFT_TISSUE	> 10
SNU869_BILIARY_TRACT	2.14
RERFLCAD1_LUNG	4.27
MKN1_STOMACH	1.18
T47D_BREAST	4.07
TM87_SOFT_TISSUE	5.06
DL_SOFT_TISSUE	4.57
TT2609C02_THYROID	> 10

Test System	IC50 of cell viability [µM]
KE37_HAEMATOPOIETIC_AND_LYMPHOID_TISSUE	6.5
KARPAS1718_HAEMATOPOIETIC_AND_LYMPHOID_TISSUE	4.87
SW1116_LARGE_INTESTINE	2.37
PC14_LUNG	3.98
HCC56_LARGE_INTESTINE	2.37
LCLC103H_LUNG	8.64
JL1_PLEURA	> 10
NCIH2030_LUNG	3.34
ECC2_BILIARY_TRACT	> 10
KS1_CENTRAL_NERVOUS_SYSTEM	7.63
HSKTC_OVARY	4.41
TANOUE_HAEMATOPOIETIC_AND_LYMPHOID_TISSUE	9.36
C32_SKIN	9.25
OCIAML2_HAEMATOPOIETIC_AND_LYMPHOID_TISSUE	3
ISTMES1_PLEURA	8.84
HLF_LIVER	7.5
H157_UPPER_AERODIGESTIVE_TRACT	8.84
NIHOVCAR3_OVARY	8.37
GB2_BILIARY_TRACT	2.24
T3M10_LUNG	5.96
DU145_PROSTATE	> 10
RO82W1_THYROID	5.35
OV56_OVARY	> 10
TGBC1TKB_BILIARY_TRACT	7.28

Test System	IC50 of cell viability [µM]
A253_SALIVARY_GLAND	4.12
CAL54_KIDNEY	> 10
SKMEL28_SKIN	4.05
SNU407_LARGE_INTESTINE	1.21
JMSU1_URINARY_TRACT	> 10
CAL12T_LUNG	4.93
CHLA15_AUTONOMIC_GANGLIA	5.41
SR786_HAEMATOPOIETIC_AND_LYMPHOID_TISSUE	7.44
CMLT1_HAEMATOPOIETIC_AND_LYMPHOID_TISSUE	4.55
253J_URINARY_TRACT	4.76
KALS1_CENTRAL_NERVOUS_SYSTEM	9.22
SF126_CENTRAL_NERVOUS_SYSTEM	4.43
CCLP1_BILIARY_TRACT	7.32
BOKU_CERVIX	> 10
TALL1_HAEMATOPOIETIC_AND_LYMPHOID_TISSUE	6.69
CJM_SKIN	5.39
SUDHL1_HAEMATOPOIETIC_AND_LYMPHOID_TISSUE	4.67
RH30_SOFT_TISSUE	9.22
BT16_SOFT_TISSUE	> 10
SUPB15_HAEMATOPOIETIC_AND_LYMPHOID_TISSUE	3.13
KKU213_BILIARY_TRACT	4.97
COV362_OVARY	> 10
